Measured values published in US6914045B2, “Glycopeptide antibiotics” (Wyeth Holdings Corporation, priority 2001, dated 2005).
Values after ≈ are worked out from the molar mass of the structure shown. One block for each molecule: values may come before it.

Key:
Experiment in all cases: in vitro antibacterial evaluation, MIC by broth dilution
Type in all cases: cell-based
Staphylococcus sp. = conditions: broth dilution, 18 hours at 35° C.; for MIC Staphylococcus aureus (ATCC 29213): strain ATCC 29213; for MIC Staphylococcus aureus (GC 1131): strain GC 1131; for MIC Staphylococcus aureus (GC 3051): strain GC 3051; for MIC Staphylococcus aureus (GC 3053): strain GC 3053; for MIC Staphylococcus aureus (GC 4541): strain GC 4541; for MIC Staphylococcus aureus (GC 4542): strain GC 4542; for MIC Staphylococcus aureus-SMITH (GC 4543): strain GC 4543; for MIC Staphylococcus aureus (GC 4544): strain GC 4544; for MIC Staphylococcus aureus (GC 4545): strain GC 4545; for MIC Staphylococcus haemolyticus (GC 4546): strain GC 4546; for MIC Coagulase Negative Staphylococcus (GC 4547): strain GC 4547; for MIC Coagulase Negative Staphylococcus (GC 4548): strain GC 4548; for MIC Coagulase Negative Staphylococcus (GC 4549): strain GC 4549; for MIC Coagulase Negative Staphylococcus (GC 4551): strain GC 4551
Experimental: (§1) Methods for in vitro Antibacterial Evaluation (Table 1)
(§2) The minimum inhibitory concentration (MIC), the lowest concentration of the antibiotic which inhibits growth of the test organism, is determined by the broth dilution method using Muller-Hinton II […] (Baltimore Biological Laboratories) following the recommendations of the National Committee for Clinical Laboratory Standards [Methods for dilution antimicrobial susceptibility tests for bacteria that grow aerobically, approved standard M7-A2, National Committee for Clinical Laboratory Standards, Villanova, Pa.].
(§3) An inoculum level of 5×10^5 CFU/mL, and a range of antibiotic concentrations (64-0.06 μg/mL) is used. […] The test organisms include a spectrum of Gram-positive bacteria comprised of Staphylococcus sp., Streptococcus sp. and Enterococcus sp. These organisms include recent clinical isolates that are resistant to methicillin, penicillin and/or vancomycin.

Streptococcus sp. = conditions: broth dilution, 18 hours at 35° C.
Experimental: as §1, §2, §3

Enterococcus sp. = conditions: broth dilution, 18 hours at 35° C.
Experimental: as §1, §2, §3

Escherichia coli = conditions: 18 hours at 35° C.
Experimental: as §2, §3

[1] = inoculum 5×10^5 CFU/mL, strain ATCC 6301
[2] = inoculum 5×10^5 CFU/mL, strain GC 1894
[3] = inoculum 5×10^5 CFU/mL, strain GC 4563
[4] = inoculum 5×10^5 CFU/mL, strain GC 4564
[5] = inoculum 5×10^5 CFU/mL, strain GC 4565
[6] = inoculum 5×10^5 CFU/mL, strain ATCC 29212
[7] = inoculum 5×10^5 CFU/mL, strain GC 2242
[8] = inoculum 5×10^5 CFU/mL, strain GC 2243
[9] = inoculum 5×10^5 CFU/mL, strain GC 2691
[10] = inoculum 5×10^5 CFU/mL, strain GC 3059
[11] = inoculum 5×10^5 CFU/mL, strain GC 4552
[12] = inoculum 5×10^5 CFU/mL, strain GC 4553
[13] = inoculum 5×10^5 CFU/mL, strain GC 4554
[14] = inoculum 5×10^5 CFU/mL, strain GC 4556
[15] = inoculum 5×10^5 CFU/mL, strain GC 4557
[16] = inoculum 5×10^5 CFU/mL, strain GC 4558
[17] = inoculum 5×10^5 CFU/mL, strain GC 6189

MIC Staphylococcus aureus (ATCC 29213) (Staphylococcus sp.): >64 µg/mL | MIC Staphylococcus aureus (GC 1131) (Staphylococcus sp.): >64 µg/mL | MIC Staphylococcus aureus (GC 3051) (Staphylococcus sp.): >64 µg/mL | MIC Staphylococcus aureus (GC 3053) (Staphylococcus sp.): >64 µg/mL | MIC Staphylococcus aureus (GC 4541) (Staphylococcus sp.): >64 µg/mL | MIC Staphylococcus aureus (GC 4542) (Staphylococcus sp.): >64 µg/mL | MIC Staphylococcus aureus-SMITH (GC 4543) (Staphylococcus sp.): >64 µg/mL | MIC Staphylococcus aureus (GC 4544) (Staphylococcus sp.): >64 µg/mL | MIC Staphylococcus aureus (GC 4545) (Staphylococcus sp.): >64 µg/mL | MIC Coagulase Negative Staphylococcus (GC 4547) (Staphylococcus sp.): >64 µg/mL | MIC Coagulase Negative Staphylococcus (GC 4548) (Staphylococcus sp.): >64 µg/mL | MIC Coagulase Negative Staphylococcus (GC 4549) (Staphylococcus sp.): >64 µg/mL | MIC Coagulase Negative Staphylococcus (GC 4551) (Staphylococcus sp.): >64 µg/mL | MIC Streptococcus agalactiae (GC 4564) (Streptococcus sp.): >64 µg/mL | MIC Streptococcus pneumoniae (ATCC 6301) (Streptococcus sp.): 64 µg/mL (≈ 44.9 µM) | MIC Streptococcus pneumoniae (GC 1894) (Streptococcus sp.): 32 µg/mL (≈ 22.4 µM) | MIC Streptococcus pneumoniae (GC 4565) (Streptococcus sp.): 64 µg/mL (≈ 44.9 µM) | MIC Streptococcus pyogenes (GC 4563) (Streptococcus sp.): 64 µg/mL (≈ 44.9 µM) | MIC Streptococcus pneumoniae (ATCC 6301) (Streptococcus sp.; [1]): 64 µg/mL (≈ 44.9 µM) | MIC Streptococcus pneumoniae (GC 1894) (Streptococcus sp.; [2]): 32 µg/mL (≈ 22.4 µM) | MIC Streptococcus pyogenes (GC 4563) (Streptococcus sp.; [3]): 64 µg/mL (≈ 44.9 µM) | MIC Streptococcus agalactiae (GC 4564) (Streptococcus sp.; [4]): >64 µg/mL | MIC Streptococcus pneumoniae (GC 4565) (Streptococcus sp.; [5]): 64 µg/mL (≈ 44.9 µM) | MIC Enterococcus avium (GC 4558) (Enterococcus sp.): 64 µg/mL (≈ 44.9 µM) | MIC Enterococcus faecalis (ATCC 29212) (Enterococcus sp.): >64 µg/mL | MIC Enterococcus faecalis (GC 2242) (Enterococcus sp.): >64 µg/mL | MIC Enterococcus faecalis (GC 2691) (Enterococcus sp.): >64 µg/mL | MIC Enterococcus faecalis (GC 3059) (Enterococcus sp.): >64 µg/mL | MIC Enterococcus faecalis (GC 4552) (Enterococcus sp.): >64 µg/mL | MIC Enterococcus faecalis (GC 4553) (Enterococcus sp.): >64 µg/mL | MIC Enterococcus faecalis (GC 4554) (Enterococcus sp.): >64 µg/mL | MIC Enterococcus faecalis (GC 6189) (Enterococcus sp.): >64 µg/mL | MIC Enterococcus faecium (GC 2243) (Enterococcus sp.): >64 µg/mL | MIC Enterococcus faecium (GC 4556) (Enterococcus sp.): >64 µg/mL | MIC Enterococcus faecium (GC 4557) (Enterococcus sp.): 64 µg/mL (≈ 44.9 µM) | MIC Enterococcus faecalis (ATCC 29212) (Enterococcus sp.; [6]): >64 µg/mL | MIC Enterococcus faecalis (GC 2242) (Enterococcus sp.; [7]): >64 µg/mL | MIC Enterococcus faecium (GC 2243) (Enterococcus sp.; [8]): >64 µg/mL | MIC Enterococcus faecalis (GC 2691) (Enterococcus sp.; [9]): >64 µg/mL | MIC Enterococcus faecalis (GC 3059) (Enterococcus sp.; [10]): >64 µg/mL | MIC Enterococcus faecalis (GC 4552) (Enterococcus sp.; [11]): >64 µg/mL | MIC Enterococcus faecalis (GC 4553) (Enterococcus sp.; [12]): >64 µg/mL | MIC Enterococcus faecalis (GC 4554) (Enterococcus sp.; [13]): >64 µg/mL | MIC Enterococcus faecium (GC 4556) (Enterococcus sp.; [14]): >64 µg/mL | MIC Enterococcus faecium (GC 4557) (Enterococcus sp.; [15]): 64 µg/mL (≈ 44.9 µM) | MIC Enterococcus avium (GC 4558) (Enterococcus sp.; [16]): 64 µg/mL (≈ 44.9 µM) | MIC Enterococcus faecalis (GC 6189) (Enterococcus sp.; [17]): >64 µg/mL | MIC Escherichia coli (ATCC 25922) (Escherichia coli): >64 µg/mL | MIC Escherichia coli (GC 4559) (Escherichia coli): >64 µg/mL | MIC Escherichia coli (GC 4560) (Escherichia coli): 64 µg/mL (≈ 44.9 µM)
SMILES: N=C1NCC(C(O)C2NC(=O)C(CC3CCC(OC4OC(CO)C(OC5OC6COC7(OC6C(O)C5O)C5CC6CC(C5)CC7C6)C(O)C4O)CC3)NC(=O)C(CC3CCCCC3)NC(=O)CNC(=O)C(CO)NC(=O)C(C(O)C3CNC(=N)N3C3OC(CO)C(O)C(O)C3O)NC2=O)N1 (single isomer, unassigned) [Example 222]
MIC Staphylococcus haemolyticus (GC 4546) (Staphylococcus sp.): >64 µg/mL

MIC Staphylococcus aureus (ATCC 29213) (Staphylococcus sp.): >64 µg/mL | MIC Staphylococcus aureus (GC 1131) (Staphylococcus sp.): >64 µg/mL | MIC Staphylococcus aureus (GC 3051) (Staphylococcus sp.): 64 µg/mL (≈ 44.9 µM) | MIC Staphylococcus aureus (GC 3053) (Staphylococcus sp.): >64 µg/mL | MIC Staphylococcus aureus (GC 4541) (Staphylococcus sp.): 64 µg/mL (≈ 44.9 µM) | MIC Staphylococcus aureus (GC 4542) (Staphylococcus sp.): 64 µg/mL (≈ 44.9 µM) | MIC Staphylococcus aureus-SMITH (GC 4543) (Staphylococcus sp.): 64 µg/mL (≈ 44.9 µM) | MIC Staphylococcus aureus (GC 4544) (Staphylococcus sp.): 64 µg/mL (≈ 44.9 µM) | MIC Staphylococcus aureus (GC 4545) (Staphylococcus sp.): 64 µg/mL (≈ 44.9 µM) | MIC Coagulase Negative Staphylococcus (GC 4547) (Staphylococcus sp.): 64 µg/mL (≈ 44.9 µM) | MIC Coagulase Negative Staphylococcus (GC 4548) (Staphylococcus sp.): 64 µg/mL (≈ 44.9 µM) | MIC Coagulase Negative Staphylococcus (GC 4549) (Staphylococcus sp.): 64 µg/mL (≈ 44.9 µM) | MIC Coagulase Negative Staphylococcus (GC 4551) (Staphylococcus sp.): 64 µg/mL (≈ 44.9 µM) | MIC Streptococcus agalactiae (GC 4564) (Streptococcus sp.): >64 µg/mL | MIC Streptococcus pneumoniae (ATCC 6301) (Streptococcus sp.): 64 µg/mL (≈ 44.9 µM) | MIC Streptococcus pneumoniae (GC 1894) (Streptococcus sp.): 32 µg/mL (≈ 22.4 µM) | MIC Streptococcus pneumoniae (GC 4565) (Streptococcus sp.): >64 µg/mL | MIC Streptococcus pyogenes (GC 4563) (Streptococcus sp.): 64 µg/mL (≈ 44.9 µM) | MIC Streptococcus pneumoniae (ATCC 6301) (Streptococcus sp.; [1]): 64 µg/mL (≈ 44.9 µM) | MIC Streptococcus pneumoniae (GC 1894) (Streptococcus sp.; [2]): 32 µg/mL (≈ 22.4 µM) | MIC Streptococcus pyogenes (GC 4563) (Streptococcus sp.; [3]): 64 µg/mL (≈ 44.9 µM) | MIC Streptococcus agalactiae (GC 4564) (Streptococcus sp.; [4]): >64 µg/mL | MIC Streptococcus pneumoniae (GC 4565) (Streptococcus sp.; [5]): >64 µg/mL | MIC Enterococcus avium (GC 4558) (Enterococcus sp.): 64 µg/mL (≈ 44.9 µM) | MIC Enterococcus faecalis (ATCC 29212) (Enterococcus sp.): >64 µg/mL | MIC Enterococcus faecalis (GC 2242) (Enterococcus sp.): >64 µg/mL | MIC Enterococcus faecalis (GC 2691) (Enterococcus sp.): >64 µg/mL | MIC Enterococcus faecalis (GC 3059) (Enterococcus sp.): >64 µg/mL | MIC Enterococcus faecalis (GC 4552) (Enterococcus sp.): >64 µg/mL | MIC Enterococcus faecalis (GC 4553) (Enterococcus sp.): 64 µg/mL (≈ 44.9 µM) | MIC Enterococcus faecalis (GC 4554) (Enterococcus sp.): >64 µg/mL | MIC Enterococcus faecalis (GC 6189) (Enterococcus sp.): >64 µg/mL | MIC Enterococcus faecium (GC 2243) (Enterococcus sp.): >64 µg/mL | MIC Enterococcus faecium (GC 4556) (Enterococcus sp.): >64 µg/mL | MIC Enterococcus faecium (GC 4557) (Enterococcus sp.): 64 µg/mL (≈ 44.9 µM) | MIC Enterococcus faecalis (ATCC 29212) (Enterococcus sp.; [6]): >64 µg/mL | MIC Enterococcus faecalis (GC 2242) (Enterococcus sp.; [7]): >64 µg/mL | MIC Enterococcus faecium (GC 2243) (Enterococcus sp.; [8]): >64 µg/mL | MIC Enterococcus faecalis (GC 2691) (Enterococcus sp.; [9]): >64 µg/mL | MIC Enterococcus faecalis (GC 3059) (Enterococcus sp.; [10]): >64 µg/mL | MIC Enterococcus faecalis (GC 4552) (Enterococcus sp.; [11]): >64 µg/mL | MIC Enterococcus faecalis (GC 4553) (Enterococcus sp.; [12]): 64 µg/mL (≈ 44.9 µM) | MIC Enterococcus faecalis (GC 4554) (Enterococcus sp.; [13]): >64 µg/mL | MIC Enterococcus faecium (GC 4556) (Enterococcus sp.; [14]): >64 µg/mL | MIC Enterococcus faecium (GC 4557) (Enterococcus sp.; [15]): 64 µg/mL (≈ 44.9 µM) | MIC Enterococcus avium (GC 4558) (Enterococcus sp.; [16]): 64 µg/mL (≈ 44.9 µM) | MIC Enterococcus faecalis (GC 6189) (Enterococcus sp.; [17]): >64 µg/mL | MIC Escherichia coli (ATCC 25922) (Escherichia coli): >64 µg/mL | MIC Escherichia coli (GC 4559) (Escherichia coli): >64 µg/mL | MIC Escherichia coli (GC 4560) (Escherichia coli): 32 µg/mL (≈ 22.4 µM)
SMILES: N=C1NCC(C(O)C2NC(=O)C(CC3CCC(OC4OC(CO)C(OC5OC6COC7(OC6C(O)C5O)C5CC6CC(C5)CC7C6)C(O)C4O)CC3)NC(=O)C(CC3CCCCC3)NC(=O)CNC(=O)C(CO)NC(=O)C(C(O)C3CNC(=N)N3C3OC(CO)C(O)C(O)C3O)NC2=O)N1 (single isomer, unassigned) [Example 223]
MIC Staphylococcus haemolyticus (GC 4546) (Staphylococcus sp.): 64 µg/mL (≈ 44.9 µM)
